Biological target: central benzodiazepine receptors (specific benzodiazepine receptors in the cerebral cortex)
Assay: Inhibition of the specific binding of tritiated diazepam at the specific benzodiazepine receptors in the cerebral cortex (affinity to central benzodiazepine receptors)
Details: read-out: Affinity to benzodiazepine receptors IC 50
Description: The affinity of compounds of formula I to the central benzodiazepine receptors has been determined according to the method described in Life Science 20, 2101-2110 (1977) and Science 198, 849-851 (1977). According to this method, the inhibition of the binding of tritiated diazepam at the specific benzodiazepine receptors in the cerebral cortex by the respective test substances is ascertained. The IC50 ("50% inhibiting concentration") is that concentration of the respective test substance which brings about a 50 percent inhibition of the specific binding of the tritiated diazepam at the specific benzodiazepine receptors in the cerebral cortex.

For `CN1Cc2c(C#CCOCC3CC3)ncn2-c2cccc(Cl)c2C1=O` [A, 7-Chloro-3-[3-(cyclopropylmethoxy)-1-propynyl]-4,5-dihydro-5-methyl-6H-imidazo[1,5-a][1,4]benzodiazepin-6-one], the IC50 was 1.4 nM.
Work on `CC(=O)OCC#Cc1ncn2c1CN(C)C(=O)c1c(Cl)cccc1-2` [B, 3-(7-chloro-5,6-dihydro-5-methyl-6-oxo-4H-imidazo[1,5-a][1,4]benzodiazepin-3-yl)-2-propynyl acetate] yielded an IC50 of 2.6 nM.
Compound `CN1Cc2c(C#CC(C)(C)OCC3CC3)ncn2-c2cccc(Cl)c2C1=O` [C, 7-chloro-3-[3-(cyclopropylmethoxy)-3-methyl-1-butynyl]-4,5-dihydro-5-methyl-6H-imidazo[1,5-a][1,4]benzodiazepin-6-one] has an IC50 of 5 nM.
Compound `C/C(C#Cc1ncn2c1CN(C)C(=O)c1c(Cl)cccc1-2)=C/CO` [D, 7-chloro-4,5-dihydro-3-[(Z)-5-hydroxy-3-methyl-3-penten-1-ynyl]-5-methyl-6H-imidazo[1,5-a][1,4]-benzodiazepin-6-one] has an IC50 of 1.4 nM.
Work on `C=CC(C)(O)C#Cc1ncn2c1CN(C)C(=O)c1c(Cl)cccc1-2` (stereo not drawn) [E, 7-chloro-4,5-dihydro-3-(3-hydroxy-3-methyl-4-penten-1-ynyl)-5-methyl-6H-imidazo[1,5-a][1,4]benzodiazepin-6-one] yielded an IC50 of 3.7 nM.
`C/C(C#Cc1ncn2c1CN(C)C(=O)c1c(Cl)cccc1-2)=C\CO` [F, 7-chloro-4,5-dihydro-3-[(E)-5-hydroxy-3-methyl-3-penten-1-ynyl]-5-methyl-6H-imidazo[1,5-a][1,4]-benzodiazepin-6-one] was tested, and the IC50 was 2.2 nM.
